Results as given in article PMC12169609, “Efficient Crystallization of Apo Sirt2 for Small-Molecule Soaking and Structural Analysis of Ligand Interactions” (Journal of Medicinal Chemistry, 2025).

What was measured:
Sirt2 = details: published Sirt2 inhibitors; no assay or reference printed at the place; cited from earlier work
Sirt2_56–356 [1] = target: T1, Sirt2_56–356 (Homo sapiens, UniProt Q8IXJ6); assay: Fluorescence polarization assay (FPA), displacement of SirReal-TAMRA probe; type: binding; details: for FP-Assay Inhibition (%) at 125 µM: 125 µM compound; for FP-Assay Inhibition (%) at 500 µM: 500 µM compound; for FP-Assay Inhibition (%) at 2000 µM: 2000 µM compound
T1 construct: human strep-tagged Sirt2_56–356 was expressed and purified; strep-tag; made in house
T1 sequence (Q8IXJ6 56-356): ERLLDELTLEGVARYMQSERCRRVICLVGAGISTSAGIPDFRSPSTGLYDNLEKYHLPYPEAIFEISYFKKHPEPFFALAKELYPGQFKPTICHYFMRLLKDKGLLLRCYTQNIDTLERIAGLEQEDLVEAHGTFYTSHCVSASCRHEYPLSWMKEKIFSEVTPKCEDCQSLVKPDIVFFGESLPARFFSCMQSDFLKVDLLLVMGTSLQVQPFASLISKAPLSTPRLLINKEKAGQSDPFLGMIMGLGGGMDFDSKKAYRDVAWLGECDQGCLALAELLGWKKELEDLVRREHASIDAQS
Protocol: Blank controls contained 19 μL of assay buffer and 1 μL DMSO. Negative controls (P neg) used 1 μL Mz242 (20 μM final concentration), while positive controls (Ppos) replaced the inhibitor with 1 μL DMSO. […] Fluorescence intensities were measured with an EnVision plate reader (PerkinElmer, optical module – BODIPY TMR FP, excitation filter – FP 531 nm, emission filter 1 – FP p-pol 595 nm, emission filter 2 – FP s-pol 595 nm). Inhibition was calculated using the equation reported below (P I, P neg, and P pos are FP values of samples, […], respectively). I=100×(1−(PI−Pneg/Ppos−Pneg))%

Sirt2_56–356 [2] = target: T1, Sirt2_56–356; assay: Fluorescence thermal shift assay (DSF); type: binding; details: 6.0 μM Sirt2; for FTS-Assay Thermal shift at 1000 µM: 1000 µM compound; for FTS-Assay Thermal shift at 2000 µM: 2000 µM compound
Protocol: Fluorescence thermal shift assays were performed in white 96-well plates (Hard-Shell PCR Plates, BioRad, USA) with a total volume of 20 μL and a final DMSO concentration of 5% (v/v), following a published protocol. ,
Melting temperatures were determined using GraphPad Prism, following a published procedure.

Row | Compound | IC50 (Sirt2) | FP-Assay Inhibition (%) at 125 µM (Sirt2_56–356 [1]) | FP-Assay Inhibition (%) at 500 µM (Sirt2_56–356 [1]) | FP-Assay Inhibition (%) at 2000 µM (Sirt2_56–356 [1]) | FTS-Assay Thermal shift at 1000 µM (Sirt2_56–356 [2]) | FTS-Assay Thermal shift at 2000 µM (Sirt2_56–356 [2])
1 | COCCn1cc(COc2cccc(Cc3cnc(NC(=O)CSc4nc(C)cc(C)n4)s3)c2)nn1 [Mz242] | 0.12 µM |  |  |  |  | 
2 | CC(=O)Nc1ccc2c(c1)CCC2 [No. 4] |  | 32.8 ± 4.3% | 61.1 ± 6.5% | 78.5 ± 7.5% | 1.1 °C | 0.1 °C
3 | CN(C(=O)c1cccs1)C1CC2CCC1C2 (stereo not shown) [No. 5] |  | -7.4 ± 8.3% | 10.3 ± 6.0% | 43.8 ± 10.1% | 0.5 °C | 0.7 °C
4 | CC1Sc2ccccc2NC(=O)C1C (stereo not shown) [No. 6] |  | 20.2 ± 2.9% | 59.9 ± 7.9% | 101.0 ± 4.7% | 1.5 °C | 
5 | COC(=O)c1sccc1-n1cccc1 [No. 7] |  | 11.5 ± 5.5% | 46.9 ± 4.3% | 76.2 ± 1.8% | 0.8 °C | 0.5 °C
6 | C#Cc1ccc(-c2cnco2)cc1 [No. 8] |  | 19.1 ± 4.6% | 61.2 ± 3.3% |  | 0.9 °C | 0.0 °C
7 | N#CCOc1cc(Cl)cc(Cl)c1 [No. 10] |  | 19.3 ± 10.5% | 53.9 ± 8.2% | 90.3 ± 14.7% | 0.7 °C | 
8 | Nc1ccccc1-c1cccs1 [No. 12] |  | 33.2 ± 10.3% | 66.4 ± 3.2% | 104.2 ± 3.2% |  | 0.0 °C
9 | CNCc1ccc(N2CCOCC2)s1 [No. 13] |  | 19.9 ± 3.1% | 49.3 ± 4.1% | 95.1 ± 3.5% |  | 
10 | c1ccc2c(CN3CCOCC3)csc2c1 [No. 14] |  | 24.3 ± 3.5% | 42.5 ± 2.9% | 91.9 ± 13.9% | 1.3 °C | 0.7 °C
